Test [1] concerns the target human TLR7 (Homo sapiens (Human), UniProt Q9NYK1). Briefly: TLR7 inhibition reporter assay (HEK-Blue SEAP). It counts as cell-based. The settings on record: HEK-Blue cells overexpressing human TLR7, gardiquimod 7.5 μM stimulation, SEAP reporter. In general terms: Reporter assays use an easily measured gene product as a stand-in for the process of interest.
The target in test [2] is human TLR9 (Homo sapiens (Human), UniProt Q9NR96). Description: TLR9 inhibition reporter assay (HEK-Blue SEAP).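 Note: SEAP driven by an IFN-β minimal promoter with NF-κB and AP-1 sites, read after 22 h, compounds dosed 0.05 nM–50 µM, inhibition scaled between agonist plus DMSO and reference-inhibitor wells.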 The settings on record: read-out: TLR9 IC50; HEK-Blue cells overexpressing human TLR9, ODN2006 5 nM stimulation, SEAP reporter.
Sequence of human TLR9 (Q9NR96 26-1032): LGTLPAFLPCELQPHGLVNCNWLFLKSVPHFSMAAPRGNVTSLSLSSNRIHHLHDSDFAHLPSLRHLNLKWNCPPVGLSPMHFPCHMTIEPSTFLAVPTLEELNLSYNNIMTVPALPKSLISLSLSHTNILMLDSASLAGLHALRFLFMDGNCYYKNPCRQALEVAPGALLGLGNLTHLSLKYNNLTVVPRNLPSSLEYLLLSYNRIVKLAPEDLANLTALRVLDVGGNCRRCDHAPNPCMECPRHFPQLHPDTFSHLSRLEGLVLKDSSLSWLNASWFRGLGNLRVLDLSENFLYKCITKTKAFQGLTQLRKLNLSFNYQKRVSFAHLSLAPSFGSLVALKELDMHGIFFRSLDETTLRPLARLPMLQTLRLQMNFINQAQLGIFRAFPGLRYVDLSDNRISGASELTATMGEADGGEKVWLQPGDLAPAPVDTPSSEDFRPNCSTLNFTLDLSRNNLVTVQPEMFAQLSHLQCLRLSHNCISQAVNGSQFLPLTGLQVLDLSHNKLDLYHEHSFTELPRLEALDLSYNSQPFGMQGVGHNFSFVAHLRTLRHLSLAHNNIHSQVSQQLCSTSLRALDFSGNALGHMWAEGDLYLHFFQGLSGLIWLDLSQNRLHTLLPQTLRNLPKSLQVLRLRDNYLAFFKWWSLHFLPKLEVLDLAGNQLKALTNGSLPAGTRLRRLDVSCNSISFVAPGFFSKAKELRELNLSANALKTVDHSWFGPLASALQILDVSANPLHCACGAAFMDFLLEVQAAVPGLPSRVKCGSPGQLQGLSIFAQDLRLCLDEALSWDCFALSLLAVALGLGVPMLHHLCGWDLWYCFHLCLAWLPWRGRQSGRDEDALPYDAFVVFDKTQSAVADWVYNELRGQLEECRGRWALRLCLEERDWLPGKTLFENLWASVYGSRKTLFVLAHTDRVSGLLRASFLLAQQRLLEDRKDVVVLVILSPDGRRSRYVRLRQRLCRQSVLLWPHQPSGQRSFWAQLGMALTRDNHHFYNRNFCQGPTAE
Test [3] addresses human TLR8 (Homo sapiens (Human), UniProt Q9NR97). Description: TLR8 inhibition reporter assay (HEK-Blue SEAP).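 Note: SEAP driven by IFN-β minimal promoter carrying NF-κB and AP-1 sites, compounds dosed 0.05 nM to 50 µM for 22 h, inhibition scaled between agonist-plus-DMSO and reference-inhibitor wells.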 The settings on record: read-out: TLR8 IC50; HEK-Blue cells overexpressing human TLR8, R848 15.9 μM stimulation, SEAP reporter.

The values that follow come from US10544143B2, “4-azaindole compounds” (BRISTOL-MYERS SQUIBB COMPANY, priority 2017, dated 2020).

Broadly, the IC50 is the concentration needed to halve the response being measured.

Sequence of human TLR8 (Q9NR97 27-1041): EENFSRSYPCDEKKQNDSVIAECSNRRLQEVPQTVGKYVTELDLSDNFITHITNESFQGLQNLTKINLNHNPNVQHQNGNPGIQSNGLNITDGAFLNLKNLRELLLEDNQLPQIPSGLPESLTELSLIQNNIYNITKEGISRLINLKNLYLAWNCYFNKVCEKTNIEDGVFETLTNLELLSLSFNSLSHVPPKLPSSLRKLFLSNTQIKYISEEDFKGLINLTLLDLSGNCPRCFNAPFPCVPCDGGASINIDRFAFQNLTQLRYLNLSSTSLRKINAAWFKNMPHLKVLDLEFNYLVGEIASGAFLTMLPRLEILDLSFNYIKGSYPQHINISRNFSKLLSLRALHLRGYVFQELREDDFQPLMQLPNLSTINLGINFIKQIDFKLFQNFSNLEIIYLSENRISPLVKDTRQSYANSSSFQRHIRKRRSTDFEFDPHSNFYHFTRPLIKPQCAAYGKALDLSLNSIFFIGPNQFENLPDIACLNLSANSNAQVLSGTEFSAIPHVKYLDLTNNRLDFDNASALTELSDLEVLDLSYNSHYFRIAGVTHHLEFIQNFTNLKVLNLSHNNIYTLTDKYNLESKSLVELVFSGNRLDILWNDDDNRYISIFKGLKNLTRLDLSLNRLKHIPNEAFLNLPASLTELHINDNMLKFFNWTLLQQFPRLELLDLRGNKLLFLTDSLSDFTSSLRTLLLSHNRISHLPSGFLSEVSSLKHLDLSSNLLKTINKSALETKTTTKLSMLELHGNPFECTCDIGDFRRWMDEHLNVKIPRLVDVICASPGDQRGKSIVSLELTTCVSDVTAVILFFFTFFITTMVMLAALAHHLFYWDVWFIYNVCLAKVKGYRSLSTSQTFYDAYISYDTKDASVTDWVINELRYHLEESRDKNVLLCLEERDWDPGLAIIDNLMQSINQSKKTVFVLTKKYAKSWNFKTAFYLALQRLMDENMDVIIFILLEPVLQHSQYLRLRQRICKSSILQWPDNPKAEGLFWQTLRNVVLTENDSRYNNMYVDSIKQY
Sequence of human TLR7 (Q9NYK1 27-1049): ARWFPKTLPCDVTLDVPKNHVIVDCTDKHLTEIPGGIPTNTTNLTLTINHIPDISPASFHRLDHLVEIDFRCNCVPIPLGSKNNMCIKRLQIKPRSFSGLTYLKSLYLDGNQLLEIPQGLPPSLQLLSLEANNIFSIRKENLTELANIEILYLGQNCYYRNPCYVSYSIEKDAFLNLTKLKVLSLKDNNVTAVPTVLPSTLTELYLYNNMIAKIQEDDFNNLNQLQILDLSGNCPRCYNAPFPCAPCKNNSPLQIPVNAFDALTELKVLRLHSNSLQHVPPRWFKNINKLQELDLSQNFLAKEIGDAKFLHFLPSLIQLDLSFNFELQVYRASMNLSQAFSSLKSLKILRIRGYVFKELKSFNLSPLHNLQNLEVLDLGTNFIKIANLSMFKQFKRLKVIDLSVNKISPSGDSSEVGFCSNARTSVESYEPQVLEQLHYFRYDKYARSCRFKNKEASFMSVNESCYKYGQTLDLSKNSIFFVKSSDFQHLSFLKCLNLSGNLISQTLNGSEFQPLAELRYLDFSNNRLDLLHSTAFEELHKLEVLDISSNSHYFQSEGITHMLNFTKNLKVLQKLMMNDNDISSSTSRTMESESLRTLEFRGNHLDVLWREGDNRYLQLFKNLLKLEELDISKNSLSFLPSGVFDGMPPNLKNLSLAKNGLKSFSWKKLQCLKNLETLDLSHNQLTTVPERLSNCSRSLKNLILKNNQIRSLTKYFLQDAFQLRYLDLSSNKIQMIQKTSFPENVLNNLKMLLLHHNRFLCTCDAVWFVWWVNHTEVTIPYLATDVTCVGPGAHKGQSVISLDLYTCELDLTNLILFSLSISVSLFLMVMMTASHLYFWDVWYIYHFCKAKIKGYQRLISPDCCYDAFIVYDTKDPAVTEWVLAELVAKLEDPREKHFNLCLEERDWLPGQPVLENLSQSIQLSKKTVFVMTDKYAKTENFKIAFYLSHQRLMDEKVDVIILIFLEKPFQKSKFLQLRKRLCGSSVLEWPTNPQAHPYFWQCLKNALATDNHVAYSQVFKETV

Take `CC(C)c1c(-c2cn(C)c3ncncc23)[nH]c2ccc(C3CCC(NCC(=O)N(C)C)CC3)nc12` (stereo not drawn) [Example 303]: the IC50 came out at 0.55 nM in test [1], 1230 nM in test [2] and 6.9 nM in test [3].

Turning to `CC(C)c1c(-c2cn(C)c3ncncc23)[nH]c2ccc(C3CCC(NCCS(C)(=O)=O)CC3)nc12` (stereo not drawn) [Example 304], the figures for the IC50 in test [1], in test [2] and in test [3] were 0.53 nM, 1070 nM and 1.8 nM, respectively.

`CC(C)c1c(-c2cn(C)c3ncncc23)[nH]c2ccc(C3CCC(NC4CCOCC4)CC3)nc12` (stereo not drawn) [Example 305]: the IC50 in test [1] was determined as 4 nM; in test [2], 8240 nM; in test [3], 16 nM.

For the compound `CC(C)c1c(-c2cc(CO)c3ncnn3c2)[nH]c2ccc(C3CCC(N(C)Cc4ccc(F)cc4)CC3)nc12` (stereo not drawn) [Example 306], the IC50 in test [1] turned out to be 13 nM; in test [2], 10100 nM; in test [3], 61 nM.

As for `CC(C)c1c(-c2cc(CO)c3ncnn3c2)[nH]c2ccc(C3CCC(NCCC(F)(F)F)CC3)nc12` (stereo not drawn) [Example 307], the IC50 in test [1] was determined as 0.86 nM; in test [2], 2980 nM; in test [3], 2.7 nM.

Regarding `CC(C)c1c(-c2cc(CO)c3ncnn3c2)[nH]c2ccc(C3CCC(NCCC(F)(F)F)CC3)nc12` (stereo not drawn) [Example 308], the IC50 in test [1] is 11 nM; in test [2] it was 3960 nM; in test [3] it was 11 nM.

On to `COc1cc(-c2[nH]c3cc(C)c(C4CCC(NC5COC5)CC4)nc3c2C(C)C)cn2ncnc12` (stereo not drawn) [Example 309], for which the results for the IC50 in test [1], in test [2] and in test [3] were 0.31 nM, 268 nM and 4.6 nM, respectively.

As for `COc1cc(-c2[nH]c3cc(C)c(C4CCC(NC5(C)COC5)CC4)nc3c2C(C)C)cn2ncnc12` (stereo not drawn) [Example 310], the IC50 in test [1] worked out at 0.39 nM; in test [2] it was 1780 nM; in test [3], 4.1 nM.

Take `COc1cc(-c2[nH]c3cc(C)c(C4CCC(NC5(C)COC5)CC4)nc3c2C(C)C)cn2ncnc12` (stereo not drawn) [Example 311]: the half-maximal inhibitory concentration (IC50) in test [1] was 2.8 nM; in test [2], 2020 nM; in test [3], 44 nM.

In the case of `COc1cc(-c2[nH]c3cc(C)c(C4CCC(NCC5(C)COC5)CC4)nc3c2C(C)C)cn2ncnc12` (stereo not drawn) [Example 312], the IC50 was 0.26 nM in test [1], 577 nM in test [2] and 1.6 nM in test [3].

Turning to `CCN(C)C1CCC(c2nc3c(C(C)C)c(-c4cc(OC)c5ncnn5c4)[nH]c3cc2C)CC1` (stereo not drawn) [Example 313], the IC50 in test [1] came to 0.21 nM; in test [2], 1200 nM; in test [3], 7 nM.

For the compound `COc1cc(-c2[nH]c3cc(C)c(C4CCC(NCC(C)(C)O)CC4)nc3c2C(C)C)cn2ncnc12` (stereo not drawn) [Example 314], the results for the 50% inhibitory concentration (IC50) in test [1], in test [2] and in test [3] were 2.4 nM, 5510 nM and 47 nM, respectively.

Regarding `COc1cc(-c2[nH]c3cc(C)c(C4CCC(NCC5(C)COC5)CC4)nc3c2C(C)C)cn2ncnc12` (stereo not drawn) [Example 315], the IC50 turned out to be 1.8 nM in test [1], 5220 nM in test [2] and 29 nM in test [3].

Turning to `COc1cc(-c2[nH]c3cc(C)c(C4CCC(NC5COC5)CC4)nc3c2C(C)C)cn2ncnc12` (stereo not drawn) [Example 316], the IC50 in test [1] was 1.4 nM; in test [2], 3020 nM; in test [3], 41 nM.

For the compound `COc1cc(-c2[nH]c3cc(C)c(C4CCC(N5CC6(COC6)C5)CC4)nc3c2C(C)C)cn2ncnc12` (stereo not drawn) [Example 317], the IC50 is 4.8 nM in test [1], 3610 nM in test [2] and 94 nM in test [3].

For `COc1cc(-c2[nH]c3cc(C)c(C4CCC(N)CC4)nc3c2C(C)C)cn2ncnc12` (stereo not drawn) [Example 318], the IC50 in test [1] came to 0.17 nM; in test [2], 1060 nM; in test [3], 2.1 nM.

Regarding `COc1cc(-c2[nH]c3cc(C)c(C4CCC(N5CC6(COC6)C5)CC4)nc3c2C(C)C)cn2ncnc12` (stereo not drawn) [Example 319], the values for the IC50 in test [1], in test [2] and in test [3] were 0.44 nM, 1690 nM and 4.1 nM, respectively.

As for `CCN(C)C1CCC(c2nc3c(C(C)C)c(-c4cc(OC)c5ncnn5c4)[nH]c3cc2C)CC1` (stereo not drawn) [Example 320], the IC50 is 1 nM in test [1], 1480 nM in test [2] and 22 nM in test [3].

`COc1cc(-c2[nH]c3cc(C)c(C4CCC(NCC(F)F)CC4)nc3c2C(C)C)cn2ncnc12` (stereo not drawn) [Example 322]: the IC50 in test [1] came out at 1.7 nM; in test [2], 7410 nM; in test [3], 19 nM.

With `COc1cc(-c2[nH]c3cc(C)c(C4CCC(N)CC4)nc3c2C(C)C)cn2ncnc12` (stereo not drawn) [Example 323], the values for the IC50 in test [1], in test [2] and in test [3] were 1.1 nM, 1360 nM and 31 nM, respectively.

`COc1cc(-c2[nH]c3cc(C)c(C4CCC(NCC(F)F)CC4)nc3c2C(C)C)cn2ncnc12` (stereo not drawn) [Example 324]: the IC50 worked out at 6.6 nM in test [1], 20500 nM in test [2] and 240 nM in test [3].

On to `COc1cc(-c2[nH]c3cc(C)c(C4CCC(N5CCC5)CC4)nc3c2C(C)C)cn2ncnc12` (stereo not drawn) [Example 325], for which the IC50 in test [1] stood at 1.5 nM; in test [2], 3110 nM; in test [3], 38 nM.

Turning to `COc1cc(-c2[nH]c3cc(C)c(C4CCC(N5CCC5)CC4)nc3c2C(C)C)cn2ncnc12` (stereo not drawn) [Example 326], the IC50 was 0.13 nM in test [1], 988 nM in test [2] and 3.7 nM in test [3].

As for `COCCNC1CCC(c2nc3c(C(C)C)c(-c4cc(OC)c5ncnn5c4)[nH]c3cc2C)CC1` (stereo not drawn) [Example 327], the IC50 in test [1] was over 3120 nM; in test [2] it was over 50000 nM; in test [3] it was over 3120 nM.

As to `COc1cc(-c2[nH]c3cc(C)c(C4CCC(NC5CCOC5)CC4)nc3c2C(C)C)cn2ncnc12` (stereo not drawn) [Example 328], the IC50 in test [1] amounted to 0.08 nM; in test [2], 576 nM; in test [3] it was 1.1 nM.

For `COc1cc(-c2[nH]c3cc(C)c(C4CCC(NC5CCOC5)CC4)nc3c2C(C)C)cn2ncnc12` (stereo not drawn) [Example 329], the IC50 in test [1] stood at 1.6 nM; in test [2] it was 2070 nM; in test [3], 23 nM.

In the case of `COc1cc(-c2[nH]c3cc(C)c(C4CCC(N(C)C5COC5)CC4)nc3c2C(C)C)cn2ncnc12` (stereo not drawn) [Example 330], the IC50 in test [1] is 0.14 nM; in test [2] it was 2970 nM; in test [3], 4.8 nM.

For `COc1cc(-c2[nH]c3cc(C)c(C4CCC(N(C)C5COC5)CC4)nc3c2C(C)C)cn2ncnc12` (stereo not drawn) [Example 331], the values for the IC50 in test [1], in test [2] and in test [3] were 1.7 nM, 1910 nM and 34 nM, respectively.

Regarding `COc1cc(-c2[nH]c3cc(C)c(C4CCC(N(C)Cc5ncn(C)n5)CC4)nc3c2C(C)C)cn2ncnc12` (stereo not drawn) [Example 332], the IC50 in test [1] was 1.3 nM; in test [2], 2660 nM; in test [3], 88 nM.

For the compound `COc1cc(-c2[nH]c3cc(C)c(C4CCC(N(C)Cc5ncn(C)n5)CC4)nc3c2C(C)C)cn2ncnc12` (stereo not drawn) [Example 333], the IC50 in test [1] turned out to be 0.6 nM; in test [2] it was 1460 nM; in test [3], 12 nM.

For `COc1cc(-c2[nH]c3cc(C)c(C4CCC(N(C)CC(C)(C)C)CC4)nc3c2C(C)C)cn2ncnc12` (stereo not drawn) [Example 334], the values for the IC50 in test [1], in test [2] and in test [3] were 4.6 nM, 2400 nM and 127 nM, respectively.

Regarding `COc1cc(-c2[nH]c3cc(C)c(C4CCC(N(C)CC(C)(C)C)CC4)nc3c2C(C)C)cn2ncnc12` (stereo not drawn) [Example 336], the IC50 in test [1] was determined as 2.8 nM; in test [2] it was 3440 nM; in test [3], 48 nM.

As for `COc1cc(-c2[nH]c3cc(C)c(C4CCC(N5CC(F)(F)C5)CC4)nc3c2C(C)C)cn2ncnc12` (stereo not drawn) [Example 337], the IC50 is 21 nM in test [1], over 50000 nM in test [2] and 350 nM in test [3].

On to `COc1cc(-c2[nH]c3cc(C)c(C4CCC(N5CC(F)(F)C5)CC4)nc3c2C(C)C)cn2ncnc12` (stereo not drawn) [Example 338], for which the IC50 in test [1] is 81 nM; in test [2] it was over 50000 nM; in test [3], 1170 nM.

Turning to `COc1cc(-c2[nH]c3cc(C)c(C4CCC(N(C)CCC#N)CC4)nc3c2C(C)C)cn2ncnc12` (stereo not drawn) [Example 339], the values for the IC50 in test [1], in test [2] and in test [3] were 0.2 nM, 5890 nM and 7.1 nM, respectively.

On to `COc1cc(-c2[nH]c3cc(C)c(C4CCC(N(C)CCC#N)CC4)nc3c2C(C)C)cn2ncnc12` (stereo not drawn) [Example 340], for which the values for the IC50 in test [1], in test [2] and in test [3] were 1.4 nM, 1870 nM and 51 nM, respectively.

Consider `COc1cc(-c2[nH]c3cc(F)c(C4CCC(NCC5(C)COC5)CC4)nc3c2C(C)C)cn2ncnc12` (stereo not drawn) [Example 341], for which the IC50 in test [1] stood at 0.12 nM; in test [2] it was 2640 nM; in test [3], 0.32 nM.

Take `COc1cc(-c2[nH]c3cc(F)c(C4CCC(NCC5(C)COC5)CC4)nc3c2C(C)C)cn2ncnc12` (stereo not drawn) [Example 342]: the IC50 in test [1] is 0.98 nM; in test [2] it was 1910 nM; in test [3], 3.9 nM.

For `COc1cc(-c2[nH]c3cc(F)c(C4CCC(N5CC6(COC6)C5)CC4)nc3c2C(C)C)cn2ncnc12` (stereo not drawn) [Example 343], the IC50 amounted to 0.19 nM in test [1], 1250 nM in test [2] and 0.54 nM in test [3].

Take `COc1cc(-c2[nH]c3cc(F)c(C4CCC(N5CC6(COC6)C5)CC4)nc3c2C(C)C)cn2ncnc12` (stereo not drawn) [Example 344]: the figures for the IC50 in test [1], in test [2] and in test [3] were 0.72 nM, 2790 nM and 4.8 nM, respectively.

Take `COc1cc(-c2[nH]c3cc(F)c(C4CCC(NC5COC5)CC4)nc3c2C(C)C)cn2ncnc12` (stereo not drawn) [Example 345]: the IC50 in test [1] was found to be 0.21 nM; in test [2] it was 1680 nM; in test [3] it was 0.68 nM.

In the case of `COc1cc(-c2[nH]c3cc(F)c(C4CCC(NC5COC5)CC4)nc3c2C(C)C)cn2ncnc12` (stereo not drawn) [Example 346], the IC50 in test [1] was determined as 0.32 nM; in test [2], 6290 nM; in test [3], 6 nM.
